In this test the test system is dopamine neurons in the midbrain VTA region. As to the kind of experiment: Patch clamp of spontaneous action potential (dopamine secretion normalization). Conditions: 250 mg/kg to 500 mg/kg. In kind it is in vivo, mouse. As to the method: A mouse model of autism spectrum disorder was created with the method described in Example 1.1. The 3-week-old male mice having autism spectrum disorder were divided into a group (n=6) orally injected with 250 mg/kg of AST-001 for 2 weeks and a group (n=6) orally injected with 500 mg/kg of AST-001 for 2 weeks, and were orally administered with AST-001. The 3-week-old male normal mouse group and the autism spectrum disorder mouse group (n=6) were orally administered with water once a day for 2 weeks and then used as a control group (n=6) in the behavioral experiment. The spontaneous action potential of dopamine neurons in the midbrain VTA region of the 5-week-old normal mice and the 5-week-old mice having autism spectrum disorder was checked with a patch clamp. It turned out that mice having autism spectrum disorder show a reduced firing rate of the spontaneous action potential as compared with the normal mice (see FIG. 3A). As a result, dopamine secretion has been reduced in a mouse having autism spectrum disorder, and it can be seen that the reduced dopamine secretion has caused behavioral abnormalities related to the dopamine pathway, such as attention, reward, and cognition.
A general note: The patch-clamp technique gives a direct electrical read-out from membranes.

For the molecule `N[C@@H](CO)C(=O)O` [AST-001, L-serine], the dopamine secretion result was “increases”.

The record behind these values is patent US12478602B2, “Method for treating a disorder” (priority 2023, dated 2025).
